pIC50: −log10 of the molar value.
How the values were obtained:
[1] = biological target: Beta-3 adrenergic receptor (Homo sapiens, UniProt P13945); assay: DRUGMATRIX: Adrenergic beta3 radioligand binding (ligand: [125I] Cyanopindolol); type: cell membranes, HEK293, Membrane; settings: hek293; Not Active = under 50% inhibition at 10 µM
Estrogen receptor beta = Estrogen receptor beta (Homo sapiens, UniProt Q92731); settings: sf9; note: in other assays of this panel Not Active means under 50% inhibition at 10 µM
[2] = DRUGMATRIX: GABAA, Chloride Channel, TBOB radioligand binding (ligand: [3H] TBOB); type: cell membranes, Rattus norvegicus, Wistar, Cerebral cortex, Membrane; settings: Not Active = under 50% inhibition at 10 µM
[3] = biological target: T1, 3-hydroxy-3-methylglutaryl-coenzyme A reductase (Homo sapiens, UniProt P04035); parameters: species or system Escherichia coli;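 note: enzyme inhibition assay of HMG-CoA reductase using radiolabeled [14C]HMG-CoA as substrate; in other assays of this panel Not Active means under 50% inhibition at 10 µM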
T1 sequence (P04035 whole entry): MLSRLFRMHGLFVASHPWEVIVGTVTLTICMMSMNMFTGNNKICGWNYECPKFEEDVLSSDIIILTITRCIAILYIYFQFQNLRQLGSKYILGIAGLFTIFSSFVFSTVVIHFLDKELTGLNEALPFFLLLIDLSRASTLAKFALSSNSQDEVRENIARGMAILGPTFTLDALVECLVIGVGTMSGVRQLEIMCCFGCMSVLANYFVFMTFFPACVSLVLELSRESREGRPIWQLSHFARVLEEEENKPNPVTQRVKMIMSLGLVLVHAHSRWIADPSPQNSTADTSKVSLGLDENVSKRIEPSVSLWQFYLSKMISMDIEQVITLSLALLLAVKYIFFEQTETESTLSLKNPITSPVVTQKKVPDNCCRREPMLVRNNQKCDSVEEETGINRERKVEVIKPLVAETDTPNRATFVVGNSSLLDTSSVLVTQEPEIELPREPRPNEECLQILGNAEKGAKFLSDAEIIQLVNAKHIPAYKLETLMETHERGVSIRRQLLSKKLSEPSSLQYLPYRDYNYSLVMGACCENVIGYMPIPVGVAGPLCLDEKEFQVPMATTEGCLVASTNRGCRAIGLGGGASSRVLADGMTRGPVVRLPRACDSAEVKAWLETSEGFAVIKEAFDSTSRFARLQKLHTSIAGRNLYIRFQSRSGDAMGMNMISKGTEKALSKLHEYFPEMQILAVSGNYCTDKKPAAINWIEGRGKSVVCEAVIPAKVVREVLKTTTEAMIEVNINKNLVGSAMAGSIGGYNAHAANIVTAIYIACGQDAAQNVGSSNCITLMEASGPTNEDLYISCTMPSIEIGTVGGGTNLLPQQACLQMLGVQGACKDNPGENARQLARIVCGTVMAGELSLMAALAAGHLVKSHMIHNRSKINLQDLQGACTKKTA

[4] = biological target: T2, Angiotensin-converting enzyme (Oryctolagus cuniculus, UniProt P12822); type: tissue-based, Lung;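 note: enzymatic inhibition of angiotensin-converting enzyme measured with FAPGG as the substrate; in other assays of this panel Not Active means under 50% inhibition at 10 µM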
T2 sequence (P12822 whole entry): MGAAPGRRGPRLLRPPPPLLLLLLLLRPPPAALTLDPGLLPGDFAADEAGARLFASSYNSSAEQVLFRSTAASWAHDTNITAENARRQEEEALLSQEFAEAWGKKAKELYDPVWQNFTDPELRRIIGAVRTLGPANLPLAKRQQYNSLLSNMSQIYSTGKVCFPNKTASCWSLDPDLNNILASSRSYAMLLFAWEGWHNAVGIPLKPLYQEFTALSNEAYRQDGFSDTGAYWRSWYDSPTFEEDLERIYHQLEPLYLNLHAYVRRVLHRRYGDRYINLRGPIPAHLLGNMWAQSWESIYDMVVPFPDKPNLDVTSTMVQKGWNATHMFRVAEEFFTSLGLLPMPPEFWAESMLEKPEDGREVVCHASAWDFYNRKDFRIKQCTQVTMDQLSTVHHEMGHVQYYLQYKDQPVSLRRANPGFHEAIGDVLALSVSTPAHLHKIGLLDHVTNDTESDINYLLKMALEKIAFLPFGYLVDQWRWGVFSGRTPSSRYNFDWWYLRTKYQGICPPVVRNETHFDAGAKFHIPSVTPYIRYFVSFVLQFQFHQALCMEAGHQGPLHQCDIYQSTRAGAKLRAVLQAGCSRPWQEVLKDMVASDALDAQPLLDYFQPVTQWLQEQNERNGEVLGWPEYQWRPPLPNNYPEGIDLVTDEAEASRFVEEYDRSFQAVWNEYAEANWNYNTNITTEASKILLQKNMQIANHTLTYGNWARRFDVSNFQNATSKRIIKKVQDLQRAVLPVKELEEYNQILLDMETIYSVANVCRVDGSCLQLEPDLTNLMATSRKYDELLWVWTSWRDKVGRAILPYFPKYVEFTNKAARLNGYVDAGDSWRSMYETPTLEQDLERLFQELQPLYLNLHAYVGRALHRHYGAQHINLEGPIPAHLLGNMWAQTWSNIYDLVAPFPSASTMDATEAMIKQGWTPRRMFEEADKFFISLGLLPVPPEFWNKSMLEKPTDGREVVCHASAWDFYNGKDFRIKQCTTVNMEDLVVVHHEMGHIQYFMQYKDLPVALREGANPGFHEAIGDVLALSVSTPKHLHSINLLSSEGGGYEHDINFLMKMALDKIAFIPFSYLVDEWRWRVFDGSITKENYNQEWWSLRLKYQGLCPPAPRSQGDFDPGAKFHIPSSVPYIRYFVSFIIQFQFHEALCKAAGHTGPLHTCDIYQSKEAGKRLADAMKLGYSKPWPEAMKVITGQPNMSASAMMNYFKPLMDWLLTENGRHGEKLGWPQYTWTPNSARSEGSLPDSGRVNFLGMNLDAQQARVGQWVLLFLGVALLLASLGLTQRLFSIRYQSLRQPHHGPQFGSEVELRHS

[5] = DRUGMATRIX: Purinergic P2X radioligand binding (ligand: [3H] alpha, beta-Methylene-ATP); type: cell membranes, Oryctolagus cuniculus, New Zealand albino, Urinary bladder, Membrane; settings: Not Active = under 50% inhibition at 10 µM
[6] = biological target: Tyrosine-protein kinase Fyn (Homo sapiens, UniProt P06241); assay: biochemical; type: cell-based, Insect cells; settings: for IC50: insect cells;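 for all read-outs here: enzymatic inhibition of Fyn kinase activity measured with Poly(Glu:Tyr) as the phosphorylation substrate; in other assays of this panel Not Active means under 50% inhibition at 10 µM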
Tyrosine-protein kinase Fyn, sequence (P06241 whole entry): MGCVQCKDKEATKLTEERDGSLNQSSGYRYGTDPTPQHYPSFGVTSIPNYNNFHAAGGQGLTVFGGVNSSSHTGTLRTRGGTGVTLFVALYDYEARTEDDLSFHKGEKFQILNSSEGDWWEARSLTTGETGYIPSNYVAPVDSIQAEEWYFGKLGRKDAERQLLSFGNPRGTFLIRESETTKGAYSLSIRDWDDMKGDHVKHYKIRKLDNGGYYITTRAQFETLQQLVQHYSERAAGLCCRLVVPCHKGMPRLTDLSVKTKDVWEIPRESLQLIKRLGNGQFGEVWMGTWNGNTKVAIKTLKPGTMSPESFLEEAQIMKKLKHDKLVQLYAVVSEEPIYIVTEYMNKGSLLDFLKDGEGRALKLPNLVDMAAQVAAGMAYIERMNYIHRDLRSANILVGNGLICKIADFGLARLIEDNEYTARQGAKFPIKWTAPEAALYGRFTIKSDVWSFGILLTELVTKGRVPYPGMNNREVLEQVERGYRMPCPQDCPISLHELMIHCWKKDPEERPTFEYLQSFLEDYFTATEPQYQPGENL

Estrogen receptor beta, sequence (Q92731 whole entry): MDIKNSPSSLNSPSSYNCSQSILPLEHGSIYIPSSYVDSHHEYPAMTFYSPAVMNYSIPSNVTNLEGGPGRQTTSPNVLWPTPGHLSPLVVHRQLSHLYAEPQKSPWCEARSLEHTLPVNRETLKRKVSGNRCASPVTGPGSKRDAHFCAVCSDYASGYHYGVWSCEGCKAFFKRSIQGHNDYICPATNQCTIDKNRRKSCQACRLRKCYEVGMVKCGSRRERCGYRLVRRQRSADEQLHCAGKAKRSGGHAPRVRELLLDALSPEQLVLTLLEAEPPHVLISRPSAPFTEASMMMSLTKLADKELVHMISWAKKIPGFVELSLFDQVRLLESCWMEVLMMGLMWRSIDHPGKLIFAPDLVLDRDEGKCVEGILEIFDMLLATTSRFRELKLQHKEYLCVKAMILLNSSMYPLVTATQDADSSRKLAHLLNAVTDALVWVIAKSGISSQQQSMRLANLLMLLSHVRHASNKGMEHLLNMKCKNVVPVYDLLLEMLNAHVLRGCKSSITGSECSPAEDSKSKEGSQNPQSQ
Beta-3 adrenergic receptor, sequence (P13945 whole entry): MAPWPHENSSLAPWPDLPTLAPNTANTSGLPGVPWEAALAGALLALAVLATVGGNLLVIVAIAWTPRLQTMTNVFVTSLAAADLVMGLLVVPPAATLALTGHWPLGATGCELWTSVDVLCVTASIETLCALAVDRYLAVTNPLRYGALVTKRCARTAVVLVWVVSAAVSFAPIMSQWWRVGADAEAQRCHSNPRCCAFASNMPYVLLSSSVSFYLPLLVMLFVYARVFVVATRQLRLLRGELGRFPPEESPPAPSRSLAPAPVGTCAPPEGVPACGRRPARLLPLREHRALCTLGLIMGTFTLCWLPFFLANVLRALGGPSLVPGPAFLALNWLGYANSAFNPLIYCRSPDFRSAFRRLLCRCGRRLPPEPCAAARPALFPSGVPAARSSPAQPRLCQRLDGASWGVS

| SMILES | IC50 [1] | IC50 (Estrogen receptor beta) | IC50 [2] | Ki [2] | IC50 [3] | IC50 [4] | IC50 [5] | Ki [5] | IC50 [6] | pIC50 ([6]; read-out: IC50) |
| --- | --- | --- | --- | --- | --- | --- | --- | --- | --- | --- |
| C[C@@H]1C[C@H]2[C@@H]3CCC4=CC(=O)C=C[C@]4(C)[C@@]3(F)[C@@H](O)C[C@]2(C)[C@H]1C(=O)CO [DESOXIMETASONE] | Not Active | Not Active | Not Active | Not Active | Not Active | Not Active | Not Active | Not Active | Not Active |  |
| C[C@@H]1CC[C@@]2(OC1)O[C@H]1[C@@H](O)[C@H]3[C@@H]4CC[C@H]5C[C@@H](O[C@@H]6O[C@H](CO)[C@H](O[C@@H]7O[C@H](CO)C(O)[C@H](O[C@@H]8OC[C@@H](O)[C@H](O)[C@H]8O)[C@H]7O[C@@H]7O[C@H](CO)[C@H](O)[C@H](O[C@@H]8O[C@H](CO)[C@@H](O)[C@H](O)[C@H]8O)[C@H]7O)[C@H](O)[C@H]6O)[C@H](O)C[C@]5(C)[C@H]4CC[C@]3(C)[C@H]1[C@@H]2C (some centres not stated) [DIGITONIN] | Not Active | Not Active | Not Active | Not Active | Not Active | Not Active | Not Active | Not Active | Not Active |  |
| C[C@H]1O[C@@H](n2cc(F)c(=O)[nH]c2=O)[C@H](O)[C@@H]1O [DOXIFLURIDINE] | Not Active | Not Active | Not Active | Not Active | Not Active | Not Active | Not Active | Not Active | Not Active |  |
| Cn1c(=O)c2c(ncn2CC(O)CO)n(C)c1=O (configuration not stated) [DYPHYLLINE] | Not Active | Not Active | Not Active | Not Active | Not Active | Not Active | Not Active | Not Active | Not Active |  |
| C[C@@H](CO)NC(=O)[C@@H]1C=C2c3cccc4[nH]cc(c34)C[C@H]2N(C)C1 [ERGONOVINE] | Not Active | Not Active | Not Active | Not Active | Not Active | Not Active | Not Active | Not Active | Not Active |  |
| COC(=O)CCc1ccc(OCC(O)CNC(C)C)cc1 (configuration not stated) [ESMOLOL] | Not Active | Not Active | Not Active | Not Active | Not Active | Not Active | Not Active | Not Active | Not Active |  |
| C#C[C@]1(OC(C)=O)CC[C@H]2[C@@H]3CCC4=C[C@@H](OC(C)=O)CC[C@@H]4[C@H]3CC[C@@]21C [ETHYNODIOL DIACETATE] | Not Active | Not Active | Not Active | Not Active | Not Active | Not Active | Not Active | Not Active | Not Active |  |
| COc1cc([C@@H]2c3cc4c(cc3[C@@H](O[C@@H]3O[C@@H]5CO[C@@H](C)O[C@H]5[C@H](O)[C@H]3O)[C@H]3COC(=O)[C@H]23)OCO4)cc(OC)c1O [ETOPOSIDE] | Not Active | Not Active | Not Active | Not Active | Not Active | Not Active | Not Active | Not Active | Not Active |  |
| CC(C(=O)O)c1cccc(Oc2ccccc2)c1 (configuration not stated) [FENOPROFEN] | Not Active | Not Active | Not Active | Not Active | Not Active | Not Active | Not Active | Not Active | Not Active |  |
| COc1ccc2c3c1O[C@H]1C[C@@H](O)C=C[C@@]31CCN(C)C2 [GALANTAMINE] | Not Active | Not Active | Not Active | Not Active | Not Active | Not Active | Not Active | Not Active | Not Active |  |
| Nc1ccn([C@@H]2O[C@H](CO)[C@@H](O)C2(F)F)c(=O)n1 [GEMCITABINE] | Not Active | Not Active | Not Active | Not Active | Not Active | Not Active | Not Active | Not Active | Not Active |  |
| Oc1c(Cl)cc(Cl)c(Cl)c1Cc1c(O)c(Cl)cc(Cl)c1Cl [HEXACHLOROPHENE] | Not Active | Not Active | Not Active | Not Active | Not Active | Not Active | Not Active | Not Active |  | 5.46 |
| CC(=O)[C@@]1(O)CC[C@H]2[C@@H]3CCC4=CC(=O)CC[C@]4(C)[C@H]3CC[C@@]21C [HYDROXYPROGESTERONE] | Not Active | Not Active | Not Active | Not Active | Not Active | Not Active | Not Active | Not Active | Not Active |  |
| COC1=C(OC)C(=O)C(CCCCCCCCCCO)=C(C)C1=O [IDEBENONE] | Not Active | Not Active | Not Active | Not Active | Not Active | Not Active | Not Active | Not Active | Not Active |  |
| CC(C)NNC(=O)c1ccncc1 [IPRONIAZID] | Not Active | Not Active | Not Active | Not Active | Not Active | Not Active | Not Active | Not Active | Not Active |  |
| Cc1c(OCC(F)(F)F)ccnc1C[S+]([O-])c1nc2ccccc2[nH]1 (configuration not stated) [LANSOPRAZOLE] | Not Active | Not Active | Not Active | Not Active | Not Active | Not Active | Not Active | Not Active | Not Active |  |
| O=c1cc(N2CCOCC2)oc2c(-c3ccccc3)cccc12 [LY-294002] | Not Active | Not Active | Not Active | Not Active | Not Active | Not Active | Not Active | Not Active | Not Active |  |
| COc1ccc2[nH]cc(CCNC(C)=O)c2c1 [MELATONIN] | Not Active | Not Active | Not Active | Not Active | Not Active | Not Active | Not Active | Not Active | Not Active |  |

Reference: ChEMBL document CHEMBL1909046, “DrugMatrix in vitro pharmacology data”
